Experimental data published in publication PMC5556071, “ATR inhibition facilitates targeting of leukemia dependence on convergent nucleotide biosynthetic pathways” (Nature Communications, 2017).
Read-outs that look alike come from different tables or passages of the source.

Assays:
[1] = tested on: CEM cells; assay: Apoptosis assay, Annexin V and PI staining; format: cell-based, human; settings: 500 nM 3-AP, 1 µM VE-822, 1 µM dCKi, 24 h
Experimental: (§1) Apoptosis and cell death were assayed using Annexin V-FITC and PI according to manufacturer’s instructions (FITC Annexin V Apoptosis Detection Kit, BD Sciences, #556570). […]
(§2) Annexin V staining. Cells were treated with the indicated treatments for 24 or 72 h, then collected and washed twice with 1 mL of FACS buffer (2% FBS in PBS). Induction of apoptosis and cell death were assayed by staining the cells with Annexin V-FITC and PI according to manufacturer’s instructions (FITC Annexin V Apoptosis Detection Kit, BD Sciences, #556570).
(§3) FACS analysis. All flow cytometry data were acquired on five-laser LSRII cytometers (BD) for analysis, and analyzed using FlowJo software (Tree Star). […]

[2] = Plasma pharmacokinetics after single dose oral co-administration; format: in vivo, C57BL/6 mice
Experimental: 3-AP, dCKi, VE-822 plasma concentrations were assessed at 0.5, 1, 2, 4, 6, 12 and 24 h following oral administration. Blood samples were collected in heparin-EDTA tubes by the retro-orbital technique and spun down to collect the supernatants. Four parts of methanol were added to plasma samples to precipitate proteins, and the supernatant was collected. Twenty microliter samples were injected onto a reverse phase column equilibrated in water 0.1% formic acid for LC-MS/MS-MRM analysis in positive ion mode. Plasma concentrations were determined by comparison to previously generated standard curves. A population pharmacokinetic modeling (NONMEM v. 7.2) with first-order conditional estimation (FOCE) was used to characterize the Cmax, half-life, and area under the curve (AUC) for 3-AP, dCKi, and VE-822. 3-AP and VE-822 were best described with a one compartment model while dCKi was best described by a two-compartment model. All three drugs were well described with first order absorption and a proportional error model. Clearance and volume were scaled by weight. […]
Plasma collection and pharmacokinetic assays. Blood was collected in heparin-EDTA tubes by retro-orbital technique at time points 0.25, 1, 6, and 24 h time points from the first set of mice and 0.5, 4, and 12 h from the second set of mice. Blood samples were spun at 2000 x g for 15 min and the plasma supernatants were collected. All plasma samples were frozen down at –20 °C before sample processing. The stock solutions of 3-AP, VE-822, DI-82, 3-AP analog (NSC 266749), VE-821 (Selleckchem), DI-39 were prepared individually by dissolving the appropriate amount of each drug in a known volume of dimethyl sulfoxide (DMSO) to a 10 mM concentration and were stored at –20 °C before use. The 3-AP analog, VE-821 and DI-39 (internal standards) were diluted to 200 nM in methanol to make the internal solution. The calibration standards were prepared by spiking working stock solutions of 3-AP, VE-822 and DI-82 in plasma from untreated mice to give 0.01-10 pmol/µL range. Each 20 µL calibration standard sample was mixed with 60 µL of internal solution (methanol with 200 nM internal standards) and vortexed for 30 s. Following centrifugation at 15,000 x g for 10 min, approximately 60 µL of sample was carefully transferred into HPLC injector vials for LC-MS/MS-MRM analysis.
Plasma samples were processed the same way as the calibration standard samples. 20 μL samples were injected onto a reverse phase column, (Thermo Scientific Hypersil GOLD column 3.0 µm; 2.1 x 100 mm) equilibrated in water/formic acid, 100/0.1, and eluted (200 μL/min) with an increasing concentration of solvent […]
The effluent from the column was directed to the Agilent Jet Stream ion source connected to the triple quadrupole mass spectrometer (Agilent 6460) operating in the multiple reaction monitoring (MRM) mode using previously optimized settings. The following drug precursor→fragment ion transitions were used: 3-AP

[3] = tested on: dasatinib-resistant p185BCR-ABL Arf–/– pre-B-ALL cells; assay: Apoptosis assay, Annexin V and PI staining; format: cell-based, mouse; settings: 350 nM 3-AP, 100 nM VE-822, 1 µM dCKi, 72 h
Experimental: as §1, §2, §3

[4] = tested on: CEM cells; assay: Cell cycle analysis of asynchronous cells by flow cytometry (S-phase population, S-phase arrest); format: cell-based, human; settings: for percentage of cell population in S-phase: asynchronous CEM, 12 h, VE-822 1 µM, DI-82 1 µM
Experimental: Cell cycle histograms. Cells were plated at a density of 0.5 x 10^6 cells/mL in respective media or drug treated media. Following 24 h incubation, cells were harvested and washed twice with PBS twice before staining with 0.5 ml of propidium iodide (Calbiochem, #P3566, 1 µg/mL) solution containing Ribonuclease A and 0.3% Triton-X 100. The samples were protected from light before acquisition by flow cytometry.
Cell cycle kinetics and cell cycle progression by intracellular detection of DNA-incorporated 5-ethynyl-2-deoxyuridine (EdU). CEM T-ALL cells were plated at a density of 0.5 x 10^6 cells/mL. Cells were pulsed with 10 µM EdU (Invitrogen) for 1 h, washed twice with PBS, and released in fresh media containing 5 µM deoxyribonucleosides, with and without drugs. Cells were collected at different time points following release in fresh media, and then fixed with 4% paraformaldehyde and permeabilized using saponin perm/wash reagent (Invitrogen). Cells were then stained with azide-Alexa Fluor 647 by Click reaction according to manufacturer’s protocol (Invitrogen; Click-iT EdU Flow cytometry kit, #C10634). […]

[5] = 3-AP 15, VE-822 40, dCKi 50 mg kg−1
[6] = cells harvested from bone marrow of a treated leukemic mouse
[7] = cells prior to inoculation in mice
[8] = C57BL/6, mouse, 40 mg/kg, 3-AP 15, VE-822 40, dCKi 50 mg kg−1

Row | SMILES | Annexin V+ cells (apoptosis induction) [1] [%] | AUC [2, 5] [µM·h] | Cmax [2, 5] [nM] | t1/2 [2, 5] [h] | Annexin V+ cells (apoptosis induction) [3, 6] [%] | Annexin V+ cells (apoptosis induction) [3, 7] [%] | concentration inducing S-phase arrest ([4]; CEM, 24 h) [µM] | percentage of cell population in S-phase ([4]; + dNTP (10 µM)) [%] | percentage of cell population in S-phase ([4]; – dNTP) [%] | Cmax [2, 8] [nM] | half-life [2, 8] [h] | AUC ([2]; C57BL/6, mouse, 40 mg/kg, 3-AP 15, VE-822 40, dCKi 50 mg kg−1, read-out: AUC) [µM·h]
1 | NC(=S)N/N=C/c1ncccc1N [3-AP] | 31.0 | 9.2 ± 1.8 | 2300 ± 700 | 3.3 ± 1.0 | 22.0 | 32.6 | 0.5 | – | – | – | – | –
2 | COc1ccc(-c2nc([C@@H](C)Sc3nc(N)cc(N)n3)c(C)s2)cc1OCCNS(C)(=O)=O [dCKi] | 11.1 | 63 ± 4 | 6400 ± 700 | 8.5 ± 3.0 | 11.0 | 20.4 | – | 31 | 30 | – | – | –
3 | CNCc1ccc(-c2cc(-c3nc(-c4ccc(S(=O)(=O)C(C)C)cc4)cnc3N)on2)cc1 [VE-822] | 10.3 | – | – | – | 12.9 | 20.7 | – | 37 | 42 | 1800 ± 200 | 17 ± 1 | 55 ± 2
